Usually melting point stands for the temperature, or range, at which the solid turns liquid. The molecule `O=C(NCC1(c2nc(Cl)cs2)CC1)c1cccnc1C(F)(F)F` [A.21, N-[[1-(4-chlorothiazol-2-yl)cyclopropyl]methyl]-2-(trifluoromethyl)pyridine-3-carboxamide] displayed a melting point of 146 to 147 °C. `O=C(NCC1(c2nc(C3CC3)cs2)CC1)c1ccccc1C(F)(F)F` [A.10, N-[[1-(4-cyclopropylthiazol-2-yl)cyclopropyl]methyl]-2-(trifluoromethyl)benzamide] returned a melting point of 83 to 84 °C. `O=C(NCC1(c2ncc(C(F)(F)F)s2)CC1)c1ccccc1C(F)(F)F` [A.29, 2-(trifluoromethyl)-N-[[1-[5-(trifluoromethyl)thiazol-2-yl]cyclopropyl]methyl]benzamide]: the melting point lay in the range of 94 to 96 °C.

The values are drawn from US20140287916A1, “PESTICIDAL COMPOUNDS” (SYNGENTA PARTICIPATIONS AG, priority 2011, published 2014).
